{"source": "patent US20120316158A1", "about": "“OPHTHALMIC SOLUTION FOR TREATING OCULAR INFECTION COMPRISING LEVOFLOXACIN OR SALT THEREOF OR SOLVATE OF THE SAME, METHOD FOR TREATING OCULAR INFECTION, LEVOFLOXACIN OR SALT THEREOF OR SOLVATE OF THE SAME, AND USE THEREOF” (priority 2010, published 2012)", "key": {"MSSA": {"test_system": "MSSA", "experiment": "MIC of clinical isolate from a patient suffering from an external ocular infection", "assay_type": "cell-based", "details": "Staphylococcus aureus; MSSA clinical isolate from a patient with an external ocular infection", "method": "MSSA (MIC=0.5 μg/mL with respect to levofloxacin) was isolated from a patient suffering from an external ocular infection."}, "[1]": {"test_system": "methicillin-sensitive Staphylococcus aureus", "details": "isolates from a patient suffering from bacterial keratitis; cited from earlier work"}}, "data": [{"smiles": "C[C@H]1COc2c(N3CCN(C)CC3)c(F)cc3c(=O)c(C(=O)O)cn1c23", "note": "[levofloxacin, Levofloxacin]", "values": [{"measurement": "MIC", "setting": "MSSA", "value": 0.5, "unit": "µg/mL"}, {"measurement": "clinically isolated MSSA resistant to levofloxacin", "setting": "[1]", "value": "about 10%"}]}]}
